Assay in all cases: growth of human tumour cells (NCI), 48 h
Assay [1] relates to SK-OV-3 ovarian.
The test system of assay [2] is OVCAR-8 ovarian.
In assay [3] the test system is DU-145 prostate.
Assay [4] has as its system EKVX NSCLC.
The subject of assay [5] is NCI-H23 lung.
The test system of assay [6] is NCI-H226 lung.
Assay [7] deals with HL-60(TB) leukemia.
Assay [8] has as its system RXF 393 renal.
Assay [9] has as its system UACC-62 melanoma.
The test system of assay [10] is UO-31 renal.

Several values for one entry are separate records, joined by “and”; a condition that tells them apart may be missing. Identical values can stand only once.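 Grown in 96-well plates, cells were treated for 48 hours with each compound at five concentrations. Insufficient inhibition: endpoint recorded as highest concentration tested. Abbreviation: GI50, concentration required for 50% inhibition of growth. TGI denotes the concentration required for complete inhibition of growth.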

Turning to `CCOC(=O)C1=CCCC[C@H]1S(=O)(=O)Nc1ccc(F)cc1Cl`, the GI50 is 47.6 µM in assay [1]; 27.9 µM in assay [2]; 25.4 µM in assay [3]; 26.8 µM in assay [4]; 26.6 µM in assay [5]; 26.7 µM in assay [6]. In addition, the GI50 in [7] is 15.7 µM; in [8] it was 13.2 µM; in assay [9], 19.1 µM; in assay [10] it was 20.8 µM. The TGI in assay [1], in assay [2], in assay [3], in assay [4], in [5] and in [6] was over 100 µM each time. In addition, the TGI was 47.9 µM in assay [7], 61.9 µM in [8], 72.7 µM in [9] and over 100 µM in assay [10].

In the case of `O=c1c2ccccc2sc2c(NCCCNCCO)nc3ccccc3c12`, the GI50 is 2.14 µM in assay [1]; 1.97 µM in assay [2]; 1.6 µM in assay [3]; 1.67 µM in [4]; 2.01 µM in [5]; 1.41 µM in assay [6]. For the same molecule, the GI50 in [7] was 1.92 µM; in assay [8] it was 1.46 µM; in assay [9] it was 1.89 µM; in assay [10], 1.18 µM. For the same molecule, the TGI in [1] is 7.31 µM; in assay [2], 4.46 µM; in [3] it was 3.33 µM; in assay [4] it was 4.58 µM; in assay [5], 7.55 µM; in [6], 2.95 µM. The TGI in [7] is 3.92 µM; in assay [8], 3.52 µM; in [9], 3.85 µM; in assay [10], 3 µM.

For `CN(Cc1ccccc1)Cn1ccnc1`, the TGI in [1], in [2], in assay [3], in assay [4], in assay [5] and in assay [6] was over 100 µM throughout. The TGI in [7], in assay [8], in [9] and in assay [10] was over 100 µM each time.

As to `O=c1c2c(nc3n1CCS3)[nH]c1cc([N+](=O)[O-])ccc12`, the GI50 in assay [1], in assay [2], in assay [3], in [4], in assay [5] and in assay [6] was over 100 µM each time. Also, the GI50 in assay [7] is 20.1 µM; in [8], 92.6 µM; in assay [9], over 100 µM; in assay [10], over 100 µM. Besides, the TGI in assay [1], in [2], in assay [3], in assay [4], in [5] and in assay [6] was over 100 µM throughout. Also, the TGI in [7], in [8], in [9] and in [10] was over 100 µM each time.

On to `COC(=O)[C@@H]1c2cc3c(c(O)c2[C@@H](OC2OC(C)C(OC)C(C)(OC)C2OC)C[C@]1(C)O)C(=O)c1c(O)cc2c(c1C3=O)O[C@H]1O[C@]2(C)[C@H](O)[C@@H](N(C)C)[C@@H]1O` (some centres not stated), for which the TGI is 4.94 µM in assay [1]; 0.532 µM and 0.348 µM in assay [2]; 0.455 µM in assay [3]; 0.0399 µM and 0.0694 µM in assay [5]; 0.0718 µM and 0.0966 µM in assay [6]; 0.107 µM in assay [7]. In addition, the TGI in assay [8] is 0.0749 µM and 0.0594 µM; in [9], 0.0206 µM and 0.0277 µM; in assay [10], 0.983 µM and 1.17 µM. In addition, the GI50 in assay [4] was 0.103 µM; in assay [5], 0.0141 µM; in assay [10], 0.21 µM.

Turning to `O=C(O)c1cc(-c2ccc3cc4c(cc3c2)OCO4)nc2ccccc12`, the TGI is over 100 µM in [1]; over 100 µM in assay [2]; over 100 µM in assay [3]; 83 µM in assay [4]; over 100 µM in assay [5]; over 100 µM in assay [6]. The TGI in assay [7] was over 100 µM; in assay [8], over 100 µM; in [9], over 100 µM; in [10], 28.1 µM.

Take `COc1ccc(C(=O)C(CN(C)C)CN(C)C)cc1`: the GI50 in assay [1] is 20.2 µM; in assay [2] it was 3.14 µM; in assay [3], 3.21 µM; in assay [4], 13.7 µM; in [5], 14.2 µM; in [6], 16.9 µM. Further, the GI50 is 0.116 µM in assay [7], 1.55 µM in [8], 5.27 µM in [9] and 1.37 µM in assay [10]. For the same molecule, the TGI in [1] is 59.5 µM; in assay [2], 22.4 µM; in assay [3], 9.93 µM; in assay [4] it was 51.1 µM; in assay [5], 41 µM; in assay [6], 37.6 µM. The TGI in assay [7] was 1.87 µM; in assay [8], 3.8 µM; in assay [9] it was 19.4 µM; in assay [10], 2.91 µM.

The values above are taken from PubChem BioAssay (NCI).
